Assay results reported in patent US8722723B2, “Aromatic amide derivative” (Research Foundation Itsuu Laboratory, priority 2008, dated 2014).

What was measured:
luciferase (Luc) = test: Reporter assay: Hela cells transfected with human RORα1 expression vector and luciferase (Luc) reporter vector; Luc activity corrected with β-Gal activity; format: cell-based, firefly; parameters: key: β-Gal-corrected Luc activity; smaller = inhibition, larger = promotion; details: human RORα1 expression vector, rev-DR2/TK-Luc reporter, about 1 day, smaller number = inhibitory, larger = promoting
Procedure: The reporter assay was used, in which Hela cells transfected with each of a pcDNA3 vector incorporated with the human RORα1 so that the gene can be expressed in animal cells as an expression vector, and a pGL3 promoter vector of which SV40 promoter was replaced with TK promoter as a luciferase expression reporter vector were used.
The Hela cells were placed at a density of 2×10^4 cells/0.1 mL/well on a 96-well cell culture plate (FALCON) by using 10% FBS-DMEM. On the next day, the human RORα1 expression vector, the reporter vector incorporated with 3 copies of rev-DR2 sequences and the HSV thymidine kinase promoter at a position upstream from the luciferase (Luc) gene, and a β-galactosidase (β-Gal) expression vector for control were introduced into the cells by using a transfection reagent (Fugene6, Roche). On the next day, the medium was replaced with 5% FBS-DMEM containing a test compound diluted at a prescribed concentration, after about 1 day, the cell supernatant was removed, then the cells were lysed (Passive Lysis buffer, Promega), the Luc substrate (PicaGene, Toyo Ink) was added to a part of the lysed cells, and the activity of produced Luc was measured as luminescence intensity. Further, the β-Gal activity was measured as intensity of fluorescence generated when 4-methylumbelliferyl β-D-galactoside was added as a substrate, and the activity of Luc corrected for the transfection efficiency with the β-Gal activity was used as the index for evaluation. A smaller number indicates inhibitory action, and a larger number indicates promoting action.

Row | SMILES | melting point | activity of Luc corrected for the transfection efficiency with the β-Gal activity (luciferase (Luc); test compound 1 μM) | activity of Luc corrected for the transfection efficiency with the β-Gal activity (luciferase (Luc); test compound 10 μM) | activity of Luc corrected for the transfection efficiency with the β-Gal activity (luciferase (Luc); test compound 0.01 μM) | activity of Luc corrected for the transfection efficiency with the β-Gal activity (luciferase (Luc); test compound 0.1 μM)
1 | CCCc1ccc(N2Cc3cc(N(C)C)ccc3C2=O)cc1 [Compound 1, 5-dimethylamino-2-(4-propyl-phenyl)-isoindol-1-one] | 160 to 161 °C | – | – | – | –
2 | CCCc1ccc(N2Cc3ccc(N(C)C)cc3C2=O)cc1 [Compound 2, 6-dimethylamino-2-(4-propyl-phenyl)-isoindol-1-one] | 141 to 142 °C | 2.8 | 3.0 | – | –
3 | CCCCc1ccc(N2Cc3cc(N(C)C)ccc3C2=O)cc1 [Compound 3, 5-dimethylamino-2-(4-n-butyl-phenyl)-isoindol-1-one] | 133 to 134 °C | – | – | – | –
4 | CC(C)c1ccc(N2Cc3cc(N(C)C)ccc3C2=O)cc1 [Compound 5, 5-dimethylamino-2-(4-isopropyl-phenyl)-isoindol-1-one] | 167 to 169 °C | – | – | – | –
5 | CC(C)c1ccc(N2Cc3ccc(N(C)C)cc3C2=O)cc1 [Compound 6, 6-dimethylamino-2-(4-isopropyl-phenyl)-isoindol-1-one] | 169 to 170 °C | – | – | – | –
6 | CCCCCCCc1ccc(N2Cc3cc(N(C)C)ccc3C2=O)cc1 [Compound 7, 5-dimethylamino-2-(4-n-heptyl-phenyl)-isoindol-1-one] | 133 to 134 °C | 1.1 | 1.1 | 1.0 | 1.1
7 | CCCCCCCc1ccc(N2Cc3ccc(N(C)C)cc3C2=O)cc1 [Compound 8, 6-dimethylamino-2-(4-n-heptyl-phenyl)-isoindol-1-one] | 101 to 102 °C | – | – | – | –
8 | CCCCCCCCc1ccc(N2Cc3cc(N(C)C)ccc3C2=O)cc1 [Compound 9, 5-dimethylamino-2-(4-n-octyl-phenyl)-isoindol-1-one] | 128 to 129 °C | – | – | – | –
9 | CCCCCCCCc1ccc(N2Cc3ccc(N(C)C)cc3C2=O)cc1 [Compound 10, 6-dimethylamino-2-(4-n-octyl-phenyl)-isoindol-1-one] | 100 to 101 °C | 0.3 | 0.4 | 0.9 | 0.7
10 | CN(C)c1ccc2c(c1)CN(c1ccc(C3CCCCC3)cc1)C2=O [Compound 11, 5-dimethylamino-2-(4-cyclohexyl-phenyl)-isoindol-1-one] | – | 2.1 | 2.6 | – | –
11 | CN(C)c1cccc2c1C(=O)N(c1ccccc1)C2 [Compound 13, 7-dimethylamino-2-phenyl-2,3-dihydro-isoindol-1-one] | 58 to 60 °C | – | – | – | –
12 | COc1ccc(N2Cc3cccc(N(C)C)c3C2=O)cc1 [Compound 14, 7-dimethylamino-2-(4-methoxyphenyl)-2,3-dihydro-isoindol-1-one] | 145 to 146 °C | 3.1 | 2.4 | 1.9 | 2.6
13 | CCOC(=O)CCCc1ccc(N2Cc3cc(N(C)C)ccc3C2=O)cc1 [Compound 15, 4-[4-(5-dimethylamino-1-oxo-1,3-dihydro-isoindol-2-yl)-phenyl]-butyric acid ethyl ester] | 116 to 117 °C | – | – | – | –
14 | CN(C)c1ccc2c(c1)CN(c1ccc(CCCC(=O)O)cc1)C2=O [Compound 16, 4-[4-(5-dimethylamino-1-oxo-1,3-dihydro-isoindol-2-yl)-phenyl]-butyric acid] | 179 to 180 °C | – | – | – | –
15 | CCOC(=O)CCCc1ccc(N2Cc3ccc(N(C)C)cc3C2=O)cc1 [Compound 17, 4-[4-(6-dimethylamino-1-oxo-1,3-dihydro-isoindol-2-yl)-phenyl]-butyric acid ethyl ester] | – | 0 | 0.0 | 0.2 | 0
16 | CCOC(=O)CCCc1ccc(N2Cc3ccccc3C2=O)cc1 [Compound 19, 4-[4-(1-oxo-1,3-dihydro-isoindol-2-yl)-phenyl]-butyric acid ethyl ester] | 94 to 96 °C | – | – | – | –
17 | O=C(O)CCCc1ccc(N2Cc3ccccc3C2=O)cc1 [Compound 20, 4-[4-(1-oxo-1,3-dihydro-isoindol-2-yl)-phenyl]-butyric acid] | 128 to 129 °C | – | – | – | –
18 | COC(=O)CCc1ccc(N2Cc3ccc(N(C)C)cc3C2=O)cc1 [Compound 21, 3-[4-(6-dimethylamino-1-oxo-1,3-dihydro-isoindol-2-yl)-phenyl]-propionic acid methyl ester] | 123 to 124 °C | – | – | – | –
19 | CN(C)c1ccc2c(c1)C(=O)N(c1ccc(CCC(=O)O)cc1)C2 [Compound 22, 3-[4-(6-dimethylamino-1-oxo-1,3-dihydro-isoindol-2-yl)-phenyl]-propionic acid] | 200 to 201 °C | – | – | – | –
20 | O=C(O)C=Cc1ccc(N2Cc3ccccc3C2=O)cc1 [Compound 24, 3-[4-(1-oxo-1,3-dihydro-isoindol-2-yl)-phenyl]-acrylic acid] | – | 0.5 | 0.4 | 0.9 | 0.7
21 | COC(=O)COc1ccc(N2Cc3ccc([N+](=O)[O-])cc3C2=O)cc1 [Compound 25, [4-(6-nitro-1-oxo-1,3-dihydro-isoindol-2-yl)-phenoxy]-acetic acid methyl ester] | 238 to 239 °C | – | – | – | –
22 | COC(=O)COc1ccc(N2Cc3ccc(N)cc3C2=O)cc1 [Compound 26, [4-(6-amino-1-oxo-1,3-dihydro-isoindol-2-yl)-phenoxy]-acetic acid methyl ester] | 197 to 198 °C | – | – | – | –
23 | COC(=O)COc1ccc(N2Cc3ccc(N(C)C)cc3C2=O)cc1 [Compound 27, [4-(6-dimethylamino-1-oxo-1,3-dihydro-isoindol-2-yl)-phenoxy]-acetic acid methyl ester] | 167 to 168 °C | – | – | – | –
24 | CN(C)c1ccc2c(c1)C(=O)N(c1ccc(CCCC(=O)OC(C)(C)C)cc1)C2 [Compound 31, 4-[4-(6-dimethylamino-1-oxo-1,3-dihydro-isoindol-2-yl)-phenyl]-butyric acid tert-butyl ester] | – | 0.1 | 0.0 | 0.8 | 0.4
25 | CCCCCCCNc1cccc2c1CN(c1cc(C)cc(C)c1)C2=O [Compound 33, 2-(3,5-dimethyl-phenyl)-4-heptylamino-2,3-dihydro-isoindol-1-one] | 68 to 69 °C | – | – | – | –
26 | CN(C)c1cccc(C(=O)Nc2ccc(CCCC(=O)O)cc2)c1 [Compound 34, 4-[4-(3-dimethylamino-benzoylamino)-phenyl]-butyric acid] | 127 to 128 °C | – | – | – | –
27 | CCOC(=O)CCCc1ccc(NC(=O)c2cc([N+](=O)[O-])ccc2C)cc1 [Compound 37, 4-[4-(2-methyl-5-nitro-benzoylamino)-phenyl]-butyric acid ethyl ester] | 108 to 109 °C | – | – | – | –
28 | Cc1ccc([N+](=O)[O-])cc1C(=O)Nc1ccc(CCCC(=O)O)cc1 [Compound 38, 4-[4-(2-methyl-5-nitro-benzoylamino)-phenyl]-butyric acid] | 172 to 173 °C | – | – | – | –
29 | CCOC(=O)CCCc1ccc(NC(=O)c2cc(C)ccc2[N+](=O)[O-])cc1 [Compound 39, 4-[4-(5-methyl-2-nitro-benzoylamino)-phenyl]-butyric acid ethyl ester] | 126 to 127 °C | – | – | – | –
